# Reference: PMC11229439 (GeroScience, 2023)
# Biological target: T1, cystathionine γ-lyase (CGL) (Rattus norvegicus, UniProt P18757)
# T1 construct: gene Cth
# Test: homoserine γ-elimination assay (2-oxobutanoate), Dixon plot
# Format: biochemical
# T1 sequence (P18757 whole entry): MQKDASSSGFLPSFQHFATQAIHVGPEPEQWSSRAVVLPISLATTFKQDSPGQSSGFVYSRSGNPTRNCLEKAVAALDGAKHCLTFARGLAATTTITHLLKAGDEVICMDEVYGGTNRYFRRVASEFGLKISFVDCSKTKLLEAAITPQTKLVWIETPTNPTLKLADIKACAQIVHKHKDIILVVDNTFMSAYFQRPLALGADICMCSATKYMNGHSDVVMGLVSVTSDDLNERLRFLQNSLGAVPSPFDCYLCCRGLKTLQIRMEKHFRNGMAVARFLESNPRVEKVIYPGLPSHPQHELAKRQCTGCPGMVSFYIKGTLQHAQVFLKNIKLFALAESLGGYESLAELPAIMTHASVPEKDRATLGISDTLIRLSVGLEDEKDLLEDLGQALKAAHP
structure (smiles),measurement,value
N[C@@H](CS)C(=O)O [cysteine],Ki,520 µM
